From US9789181B2, “PAN-DR binding polypeptides and uses thereof” (Epimmune Inc., priority 2009, dated 2017)
Where no end group is shown, it is not given here.

These sequences were tested against HLA DRB1 *0101 (Homo sapiens, UniProt P01903+P01911, A100R/D57E/F55L/F60I/F76Y/I96L/L162R/M171V/P40L/Q125E/R42F/V115G/Y59C) (assay: IC50nM to purified HLA | DRB1 *0101).
Protocol: (§1) Table printed on a drawing sheet, FIG. 1 (contd.)
Head of the field: IC50nM to purified HLA | DRB1 *0101
(§2) First copying reader's note: Continued from an earlier sheet of FIG. 1; decimal commas as printed, analog names encode substituted residues and positions, and some values are printed in italics or bold and some SEQ ID NOs underlined without a legend on this sheet.
Where the first naming reader finds the target: head: IC50nM to purified HLA | DRB1 *0101
For AAAIFVAAWTLKAAA [SEQ ID NO: 68], the IC50 was 4 nM. AAANFVAAWTLKADA [SEQ ID NO: 55] gave an IC50 of 7.6 nM. Sequence AAANFVAANTLHAAA [SEQ ID NO: 54] has an IC50 of 6.1 nM. Sequence AAANFVAAWTLKAEA [SEQ ID NO: 59] has an IC50 of 1.8 nM. With AAANFVAAFTLKAEA [SEQ ID NO: 61] the IC50 was 8 nM. AAANFVAAFTLKADA [SEQ ID NO: 57] gave an IC50 of 10 nM. Work on AAAIFVAANTLHAAA [SEQ ID NO: 72] yielded an IC50 of 7.3 nM. AAAQFVAAYTLHAAA [SEQ ID NO: 65] was tested, and the IC50 was 4.2 nM. AAAIFVAAYTLHAAA [SEQ ID NO: 70] showed an IC50 of 5.7 nM.

What follows are sequences tested against HLA DRB1 *0301 (Homo sapiens, UniProt P01903+P01911, A100K/A102G/A103R/A169T/F55Y/I96L/K41T/L162R/M171V/P40S/Q125H/Q178H/Q39Y/R42S/S66N/T106N/T262R/W38E/Y61H) (assay: IC50nM to purified HLA | DRB1 *0301).
Chain of HLA DRB1 *0301 (P01903 26-254 limits assumed, other chains not shown): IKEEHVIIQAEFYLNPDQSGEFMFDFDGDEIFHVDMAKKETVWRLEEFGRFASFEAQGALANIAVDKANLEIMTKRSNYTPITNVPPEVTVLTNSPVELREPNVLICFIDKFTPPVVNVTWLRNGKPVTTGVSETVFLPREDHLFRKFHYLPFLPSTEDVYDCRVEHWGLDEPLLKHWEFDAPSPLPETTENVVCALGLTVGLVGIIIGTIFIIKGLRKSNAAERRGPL
Protocol: as §1
Head of the field: IC50nM to purified HLA | DRB1 *0301
as §2
Where the first naming reader finds the target: head: IC50nM to purified HLA | DRB1 *0301
Sequence AAAIFVAAWTLKAAA [SEQ ID NO: 68] has an IC50 of 393 nM. AAANFVAAWTLKAEA [SEQ ID NO: 59] was tested, and the IC50 was 723 nM. For AAANFVAAFTLKAEA [SEQ ID NO: 61], the IC50 was 1540 nM. AAAQFVAAYTLHAAA [SEQ ID NO: 65] was tested, and the IC50 was 153 nM. For AAAIFVAAYTLHAAA [SEQ ID NO: 70], the IC50 was 301 nM.

The sequences below were run against HLA DRB1 *0401 (Homo sapiens, UniProt P01903+P01911, A100K/A169T/F76Y/I96L/K127E/L162R/M171V/N62H/P40V/Q125Y/R42H/S133A/S149N/S66Y/V115G/V209L/W38E) (assay: IC50nM to purified HLA | DRB1 *0401).
Protocol: as §1
Head of the field: IC50nM to purified HLA | DRB1 *0401
as §2
Where the first naming reader finds the target: head: IC50nM to purified HLA | DRB1 *0401
With AAANFVAAWTLKADA [SEQ ID NO: 55] the IC50 was 5.5 nM. Work on AAANFVAANTLHAAA [SEQ ID NO: 54] yielded an IC50 of 3.4 nM. Work on AAANFVAAFTLKADA [SEQ ID NO: 57] yielded an IC50 of 4.3 nM. AAAIFVAANTLHAAA [SEQ ID NO: 72] gave an IC50 of 2.7 nM. AAAQFVAAYTLHAAA [SEQ ID NO: 65] showed an IC50 of 2.2 nM.

The sequences below were run against HLA DRB1 *0405 (Homo sapiens, UniProt P01903+P01911, A100R/A169T/D86S/F76Y/I96L/K127E/L162R/M171V/N62H/P40V/Q125Y/R42H/S133A/S149N/S66Y/V115G/V209L/W38E) (assay: IC50nM to purified HLA | DRB1 *0405).
Protocol: as §1
Head of the field: IC50nM to purified HLA | DRB1 *0405
as §2
Where the first naming reader finds the target: head: IC50nM to purified HLA | DRB1 *0405
With AAANFVAAWTLKAEA [SEQ ID NO: 59] the IC50 was 3.8 nM. With AAANFVAAFTLKAEA [SEQ ID NO: 61] the IC50 was 12 nM. With AAANFVAAFTLKADA [SEQ ID NO: 57] the IC50 was 13 nM. For AAAQFVAAYTLHAAA [SEQ ID NO: 65], the IC50 was 22 nM.

These sequences were tested against HLA DRB1 *0701 (Homo sapiens, UniProt P01903+P01911, A100R/A102G/A103Q/D57E/D86V/E43K/F76Y/K127E/L162R/M171V/P40G/Q125H/Q99D/R33Q/R42Y/R54Q/S133A/S66F/T210M/V115G/Y107V/Y59L/Y89S) (assay: IC50nM to purified HLA | DRB1 *0701).
Protocol: as §1
Head of the field: IC50nM to purified HLA | DRB1 *0701
as §2
Where the first naming reader finds the target: head: IC50nM to purified HLA | DRB1 *0701
Sequence AAAIFVAAWTLKAAA [SEQ ID NO: 68] has an IC50 of 75 nM. With AAANFVAAWTLKADA [SEQ ID NO: 55] the IC50 was 52 nM. AAANFVAANTLHAAA [SEQ ID NO: 54] gave an IC50 of 84 nM. With AAAIFVAANTLHAAA [SEQ ID NO: 72] the IC50 was 109 nM. Sequence AAAIFVAAYTLHAAA [SEQ ID NO: 70] has an IC50 of 95 nM.

These sequences were tested against HLA DRB1 *0802 (Homo sapiens, UniProt P01903+P01911, A100R/A103L/A169T/F76Y/H45Y/I96F/K41T/L162R/M171V/P40S/Q125H/Q178H/Q39Y/Q99D/R218S/R42G/S66Y/V115G/W38E) (assay: IC50nM to purified HLA | DRB1 *0802).
Protocol: as §1
Head of the field: IC50nM to purified HLA | DRB1 *0802
as §2
Where the first naming reader finds the target: head: IC50nM to purified HLA | DRB1 *0802
In the case of AAAIFVAAWTLKAAA [SEQ ID NO: 68], the IC50 is reported as 14 nM. AAANFVAAWTLKADA [SEQ ID NO: 55] was tested, and the IC50 was 35 nM. AAANFVAAWTLKAEA [SEQ ID NO: 59] gave an IC50 of 19 nM. For AAANFVAAFTLKAEA [SEQ ID NO: 61], the IC50 was 14 nM. Work on AAAQFVAAYTLHAAA [SEQ ID NO: 65] yielded an IC50 of 5.1 nM. AAAIFVAAYTLHAAA [SEQ ID NO: 70] showed an IC50 of 9.4 nM.

These sequences were tested against HLA DRB1 *0901 (Homo sapiens, UniProt P01903+P01911, A100R/A103E/D57H/D86V/F55Y/F60I/F76Y/I96F/K127E/L162R/M171V/P40D/Q125H/Q99R/R33Q/R42F/S133A/S66N/T210M/V115G/W38K/Y107V/Y59G/Y89S) (assay: IC50nM to purified HLA | DRB1 *0901).
Protocol: as §1
Head of the field: IC50nM to purified HLA | DRB1 *0901
as §2
Where the first naming reader finds the target: head: IC50nM to purified HLA | DRB1 *0901
AAAIFVAANTLHAAA [SEQ ID NO: 72] gave an IC50 of 75 nM. AAAQFVAAYTLHAAA [SEQ ID NO: 65] gave an IC50 of 21 nM.

These sequences were tested against HLA DRB4 *0101 (Homo sapiens, UniProt P01903+P13762, G164S) (assay: IC50nM to purified HLA | DRB4 *0101).
Chain of HLA DRB4 *0101 (P01903 26-254 limits assumed): as the sequence (P01903 26-254 limits assumed, other chains not shown) above
Chain of HLA DRB4 *0101 (P13762 whole entry G164S): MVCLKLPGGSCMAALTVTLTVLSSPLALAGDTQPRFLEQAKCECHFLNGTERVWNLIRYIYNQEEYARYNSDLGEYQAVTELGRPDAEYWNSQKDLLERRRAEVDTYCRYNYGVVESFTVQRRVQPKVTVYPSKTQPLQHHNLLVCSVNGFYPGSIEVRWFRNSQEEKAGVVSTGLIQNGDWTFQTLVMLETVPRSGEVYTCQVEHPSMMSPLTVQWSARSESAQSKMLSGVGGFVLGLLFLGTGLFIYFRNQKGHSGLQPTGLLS
Protocol: as §1
Head of the field: IC50nM to purified HLA | DRB4 *0101
as §2
Where the first naming reader finds the target: head: IC50nM to purified HLA | DRB4 *0101
Sequence AAAIFVAAWTLKAAA [SEQ ID NO: 68] has an IC50 of 124 nM. AAANFVAANTLHAAA [SEQ ID NO: 54] was tested, and the IC50 was 1110 nM. AAANFVAAWTLKAEA [SEQ ID NO: 59] gave an IC50 of 221 nM. Sequence AAANFVAAFTLKAEA [SEQ ID NO: 61] has an IC50 of 492 nM. With AAAIFVAANTLHAAA [SEQ ID NO: 72] the IC50 was 109 nM. Sequence AAAQFVAAYTLHAAA [SEQ ID NO: 65] has an IC50 of 428 nM. AAAIFVAAYTLHAAA [SEQ ID NO: 70] showed an IC50 of 346 nM.

Each sequence was assayed against HLA DRB1 *1302 (Homo sapiens, UniProt P01903+P01911, A100E/A169T/K41T/L162R/M171V/P40S/Q125H/Q178H/Q39Y/Q99D/R42S/S66N/T262R/V115G/W38E/Y61H) (assay: IC50nM to purified HLA | DRB1 *1302).
Chain of HLA DRB1 *1302 (P01903 26-254 limits assumed, other chains not shown): as the sequence (P01903 26-254 limits assumed, other chains not shown) above
Protocol: as §1
Head of the field: IC50nM to purified HLA | DRB1 *1302
as §2
Where the first naming reader finds the target: head: IC50nM to purified HLA | DRB1 *1302
AAANFVAANTLHAAA [SEQ ID NO: 54] showed an IC50 of 44 nM. For AAANFVAAWTLKAEA [SEQ ID NO: 59], the IC50 was 1040 nM. AAANFVAAFTLKAEA [SEQ ID NO: 61] showed an IC50 of 1570 nM. Work on AAAIFVAANTLHAAA [SEQ ID NO: 72] yielded an IC50 of 65 nM. For AAAQFVAAYTLHAAA [SEQ ID NO: 65], the IC50 was 700 nM. AAAIFVAAYTLHAAA [SEQ ID NO: 70] showed an IC50 of 1950 nM.

Each sequence was assayed against HLA DRB1 *1501 (Homo sapiens, UniProt P01903+P01911) (assay: IC50nM to purified HLA | DRB1 *1501).
Protocol: as §1
Head of the field: IC50nM to purified HLA | DRB1 *1501
as §2
Where the first naming reader finds the target: head: IC50nM to purified HLA | DRB1 *1501
AAAIFVAAWTLKAAA [SEQ ID NO: 68] showed an IC50 of 7.3 nM. AAANFVAANTLHAAA [SEQ ID NO: 54] was tested, and the IC50 was 114 nM. For AAANFVAAWTLKAEA [SEQ ID NO: 59], the IC50 was 31 nM. AAANFVAAFTLKADA [SEQ ID NO: 57] was tested, and the IC50 was 24 nM. With AAAIFVAANTLHAAA [SEQ ID NO: 72] the IC50 was 17 nM. AAAQFVAAYTLHAAA [SEQ ID NO: 65] gave an IC50 of 3.6 nM. Sequence AAAIFVAAYTLHAAA [SEQ ID NO: 70] has an IC50 of 3.2 nM.

Each sequence was assayed against HLA DRB5 *0101 (Homo sapiens, UniProt P01903+Q30154) (assay: IC50nM to purified HLA | DRB5 *0101).
Protocol: as §1
Head of the field: IC50nM to purified HLA | DRB5 *0101
as §2
Where the first naming reader finds the target: head: IC50nM to purified HLA | DRB5 *0101
Sequence AAANFVAAWTLKADA [SEQ ID NO: 55] has an IC50 of 24 nM. For AAANFVAANTLHAAA [SEQ ID NO: 54], the IC50 was 43 nM. With AAANFVAAWTLKAEA [SEQ ID NO: 59] the IC50 was 15 nM. For AAAQFVAAYTLHAAA [SEQ ID NO: 65], the IC50 was 24 nM.

Each sequence was assayed against HLA DRB1 *0404 (Homo sapiens, UniProt P01903+P01911, A100R/A169T/F76Y/I96L/K127E/L162R/M171V/N62H/P40V/Q125Y/R42H/S133A/S149N/S66Y/V209L/W38E) (assay: IC50nM to purified HLA | DRB1 *0404).
Protocol: as §1
Head of the field: IC50nM to purified HLA | DRB1 *0404
as §2
Where the first naming reader finds the target: head: IC50nM to purified HLA | DRB1 *0404
AAAIFVAAWTLKAAA [SEQ ID NO: 68] showed an IC50 of 1.6 nM. Sequence AAANFVAAWTLKADA [SEQ ID NO: 55] has an IC50 of 9.7 nM. In the case of AAANFVAAFTLKADA [SEQ ID NO: 57], the IC50 is reported as 12 nM. AAAIFVAANTLHAAA [SEQ ID NO: 72] showed an IC50 of 4.5 nM.

What follows are sequences tested against HLA DRB1 *1101 (Homo sapiens, UniProt P01903+P01911, A100R/A169T/A87E/I96F/K41T/L162R/M171V/P40S/Q125H/Q178H/Q39Y/Q99D/R42S/S66Y/T262R/V115G/W38E) (assay: IC50nM to purified HLA | DRB1 *1101).
Chain of HLA DRB1 *1101 (P01903 26-254 limits assumed, other chains not shown): as above
Protocol: as §1
Head of the field: IC50nM to purified HLA | DRB1 *1101
as §2
Where the first naming reader finds the target: head: IC50nM to purified HLA | DRB1 *1101
AAANFVAAWTLKADA [SEQ ID NO: 55] was tested, and the IC50 was 41 nM. AAANFVAAFTLKADA [SEQ ID NO: 57] gave an IC50 of 74 nM. Work on AAAQFVAAYTLHAAA [SEQ ID NO: 65] yielded an IC50 of 17 nM. Sequence AAAIFVAAYTLHAAA [SEQ ID NO: 70] has an IC50 of 19 nM.
